Laboratory results taken from patent US20080234331A1, “Synergistic Insecticidal Mixtures for the Treatment of Seed” (Bayer CropScience AG, priority 2005, published 2008).

Tested on: Onions cv. Vaquero
Experiment: Onion yield after seed treatment with insecticidal active substances
Format: in vivo
Details: for Yield in % relative to the insecticide-untreated control 1: onion seed cv. Vaquero pretreated with thiram 2 g ai/kg and carbendazim 1 g ai/kg, seed treatment, total application rate 0.18 mg ai/seed (mixture 0.09 + 0.09); for growth-promoting effect with regard to the yield (in words): onion seed treatment, same total application rate
Procedure: Onions cv. Vaquero from the Dutch company Nunhems were pretreated uniformly with the fungicidal active substances thiram (2 g ai/kg) and carbendazim (1 g ai/kg) by customary methods. Thereafter, the seed was treated as follows, using insecticidal active substances: • 1. control, no insecticides • 2. Poncho WS 70 (clothianidin) at 0.18 mg ai/seed • 3. Gaucho WS 70 (imidacloprid) at 0.18 mg ai/seed • 4. clothianidin+imidacloprid at 0.09+0.09 mg ai/seed

| SMILES | Yield in % relative to the insecticide-untreated control 1 | growth-promoting effect with regard to the yield (in words) |
| --- | --- | --- |
| CN/C(=N\[N+](=O)[O-])NCc1cnc(Cl)s1 [clothianidin] | 137% | growth-promoting effect |
| O=[N+]([O-])/N=C1\NCCN1Cc1ccc(Cl)nc1 [imidacloprid] | 109% | growth-promoting effect |
